Assay results as given in patent USRE40086E1, “Method for treating bacterial infection with novel 7-substituted-9-substituted amino 6-demethyl-6-deoxytetracyclines” (Wyeth Holdings Corporation, priority 1991, dated 2008).
Structures can show the parent of a compound that is named as a salt. Where two headings read alike, the source gives them in different places.

Key:
[1] = tested on: S. aureus ATCC 29213 (Sensitive); experiment: MIC, agar dilution; type: cell-based; conditions: S. aureus ATCC 29213; Table IA; unit assumed
[2] = tested on: S. aureus UBMS 88-4 (Sensitive); experiment: MIC, agar dilution; type: cell-based; conditions: S. aureus UBMS 88-4; Table IA; unit assumed
S. aureus SMITH (sens) [3] = experiment: In vivo antibacterial evaluation, acute lethal infection in mice; conditions: Intraveneous
E. coli #311 (MP) = experiment: MIC, agar dilution (Table IA); type: cell-based; conditions: unit assumed
E. coli ATCC 25922 = experiment: MIC, agar dilution; type: cell-based; conditions: E. coli ATCC 25922; Table IA; unit assumed
[4] = tested on: Ps. acruginosa ATCC 27853; experiment: MIC, agar dilution (Table IA); type: cell-based; conditions: unit assumed
[5] = tested on: S. aureus UBMS 90-2 (tetM); experiment: MIC, agar dilution; type: cell-based; conditions: S. aureus UBMS 90-2 TetM; Table IA; unit assumed
[6] = tested on: S. aureus UBMS 88-5 (tetM); experiment: MIC, agar dilution; type: cell-based; conditions: S. aureus UBMS 88-5 TetM; Table IA; unit assumed
E. faecalis 12201 = experiment: MIC, agar dilution; type: cell-based; conditions: Enterococcus 12201; Table IA; unit assumed
E. coli J3272 Tet sens. = experiment: MIC, agar dilution (Table IA); type: cell-based; conditions: unit assumed
E. coli UBMS 88-1 (tetB) = experiment: MIC, agar dilution; type: cell-based; conditions: E. coli UBMS 88-1 TetB; Table IA; unit assumed
[7] = tested on: S. aureus IVES 1983 (meth. resistant); experiment: MIC, agar dilution; type: cell-based; conditions: S. aureus IVES 1983; Table IA; unit assumed
[8] = tested on: S. aureus UBMS 90-1 (tetM); experiment: MIC, agar dilution; type: cell-based; conditions: S. aureus UBMS 90-1 TetM; Table IA; unit assumed
[9] = tested on: S. haemolyticus AVAH 88-3; experiment: MIC, agar dilution; type: cell-based; conditions: S. hemolyticus AVHAH 88-3; Table IA; unit assumed
E. coli UBMS 90-5 = experiment: MIC, agar dilution (Table IA); type: cell-based; conditions: unit assumed
E. coli J2175 = experiment: MIC, agar dilution (Table IA); type: cell-based; conditions: unit assumed
E. coli UBMS 90-4 (tetM) = experiment: MIC, agar dilution; type: cell-based; conditions: E. coli UBMS 90-4 TetM; Table IA; unit assumed
S. aureus NEMC 8769/89-4 = experiment: MIC, agar dilution (Table IA); type: cell-based
E. coli MC4100 TetB = experiment: MIC, agar dilution (Table IA); type: cell-based; conditions: unit assumed
[10] = tested on: X. maltophilia NEMC 87210; experiment: MIC, agar dilution (Table IA); type: cell-based; conditions: unit assumed
[11] = tested on: S. aureus UBMS 88-7 (tetK); experiment: MIC, agar dilution; type: cell-based; conditions: S. aureus UBMS 88-7 TetK; Table IA; unit assumed
E. coli BAJ9003 = experiment: MIC, agar dilution (Table IA); type: cell-based
[12] = tested on: S. aureus IVES 2943 (meth. resistant); experiment: MIC, agar dilution; type: cell-based; conditions: S. aureus IVES 2943; Table IA; unit assumed
E. coli PRP1 TetA = experiment: MIC, agar dilution (Table IA); type: cell-based; conditions: unit assumed
E. coli J3272 TetC = experiment: MIC, agar dilution (Table IA); type: cell-based; conditions: unit assumed
S. aureus SMITH (sens) [13] = experiment: In vivo antibacterial evaluation, acute lethal infection in mice; conditions: Oral
From the text: In Vivo Antibacterial Evaluation (Table VII)

[14] = tested on: E. coli UBMS 89-2 (Sensitive); experiment: MIC, agar dilution; type: cell-based; conditions: E. coli UBMS 89-2 Tet Sens.; Table IA; unit assumed
S. mariescens FDOR 8733 = experiment: MIC, agar dilution (Table IA); type: cell-based; conditions: unit assumed
[15] = tested on: S. aureus UBMS 90-3 (Sensitive); experiment: MIC, agar dilution; type: cell-based; conditions: S. aureus UBMS 90-3; Table IA; unit assumed
[16] = tested on: S. aureus Smith (Sensitive); experiment: MIC, agar dilution; type: cell-based; conditions: S. aureus SMITH (MP); Table IA; unit assumed
E. faecalis ATCC 29212 = experiment: MIC, agar dilution; type: cell-based; conditions: E. faecalis ATCC 29212; Table IA; unit assumed
E. coli J3272 TetD = experiment: MIC, agar dilution (Table IA); type: cell-based; conditions: unit assumed
S. aureus ROSE (MP) = experiment: MIC, agar dilution (Table IA); type: cell-based; conditions: unit assumed
E. coli UBMS 89-1 (tetM) = experiment: MIC, agar dilution; type: cell-based; conditions: E. coli UBMS 89-1 TetM; Table IA; unit assumed

SMILES | Antibacterial activity (MIC) [1] | Antibacterial activity (MIC) [2] | ED50 (S. aureus SMITH (sens) [3]) | Antibacterial activity (MIC) (E. coli #311 (MP)) | Antibacterial activity (MIC) (E. coli ATCC 25922) | Antibacterial activity (MIC) [4] | Antibacterial activity (MIC) [5] | Antibacterial activity (MIC) (E. faecalis 12201) | Antibacterial activity (MIC) (E. coli J3272 Tet sens.) | Antibacterial activity (MIC) (E. coli UBMS 88-1 (tetB)) | Antibacterial activity (MIC) [7] | Antibacterial activity (MIC) [8] | Antibacterial activity (MIC) [9] | Antibacterial activity (MIC) (E. coli UBMS 90-5) | Antibacterial activity (MIC) (E. coli J2175) | Antibacterial activity (MIC) (E. coli UBMS 90-4 (tetM)) | Antibacterial activity (MIC) (E. coli MC4100 TetB) | Antibacterial activity (MIC) [10] | Antibacterial activity (MIC) [11] | Antibacterial activity (MIC) [12] | also measured
CCCCNCC(=O)Nc1cc(N(C)C)c2c(c1O)C(=O)C1=C(O)C3(O)C(=O)C(C(N)=O)=C(O)C(N(C)C)C3CC1C2.Cl.Cl (stereo not drawn) [PP, [4S-(4alpha,12aalpha)]-4,7-Bis(dimethylamino)-9-[[(butylamino)acetyl]amino)-1,4,4a,5,5a,6,11,12a-octahydro-3,10,12,12a-tetrahydroxy-1,11-dioxo-2-naphthacenecarboxamide dihydrochloride] | 0.25 mg/L | 0.25 mg/L | 1 to 2 mg/kg | 0.25 mg/L | 0.25 mg/L | 16 mg/L | 0.5 mg/L | 0.12 mg/L | 0.5 mg/L | 0.5 mg/L | 2 mg/L | 0.5 mg/L | 0.25 mg/L | 0.5 mg/L | 0.25 mg/L | 0.25 mg/L | 0.5 mg/L | 0.5 mg/L | 2 mg/L | 2 mg/L | Antibacterial activity (MIC) [6]: 0.5 mg/L; Antibacterial activity (MIC) (S. aureus NEMC 8769/89-4; unit assumed): 0.12 mg/L; Antibacterial activity (MIC) (E. coli BAJ9003; unit assumed): 0.12 mg/L; Antibacterial activity (MIC) (E. coli PRP1 TetA): 1 mg/L; Antibacterial activity (MIC) (E. coli J3272 TetC): 0.5 mg/L; ED50 (S. aureus SMITH (sens) [13]): >16 mg/kg; Antibacterial activity (MIC) [14]: 0.5 mg/L; Antibacterial activity (MIC) (S. mariescens FDOR 8733): 2 mg/L; Antibacterial activity (MIC) [15]: 0.25 mg/L; Antibacterial activity (MIC) [16]: 0.12 mg/L; Antibacterial activity (MIC) (E. faecalis ATCC 29212): 0.12 mg/L; Antibacterial activity (MIC) (E. coli J3272 TetD): 0.25 mg/L; Antibacterial activity (MIC) (S. aureus ROSE (MP)): 2 mg/L; Antibacterial activity (MIC) (E. coli UBMS 89-1 (tetM)): 0.25 mg/L
CN(C)CC(=O)Nc1cc(N(C)C)c2c(c1O)C(=O)C1=C(O)C3(O)C(=O)C(C(N)=O)=C(O)C(N(C)C)C3CC1C2 (stereo not drawn) [LL, [4S-(4alpha,12aalpha)]-4,7-Bis(dimethylamino)-9-[[(dimethylamino)acetyl]amino]-1,4,4a,5,5a,6,11,12a-octahydro-3,10,12,12a-tetrahydroxy-1,11-dioxo-2-naphthacenecarboxamide] | 0.06 mg/L | 0.06 mg/L | 0.25 to 0.5 mg/kg | 0.12 mg/L | 0.12 mg/L | 4 mg/L | 0.12 mg/L | 0.06 mg/L | 0.12 mg/L | 0.25 mg/L | 1 mg/L | 0.12 mg/L | 0.12 mg/L | 0.12 mg/L | 0.12 mg/L | 0.25 mg/L | 0.25 mg/L | 0.25 mg/L | 0.5 mg/L | 1 mg/L | Antibacterial activity (MIC) [6]: 0.12 mg/L; Antibacterial activity (MIC) (S. aureus NEMC 8769/89-4): ≦0.015; Antibacterial activity (MIC) (E. coli PRP1 TetA): 1 mg/L; Antibacterial activity (MIC) (E. coli J3272 TetC): 0.5 mg/L; ED50 (S. aureus SMITH (sens) [13]): 4 to 8 mg/kg; Antibacterial activity (MIC) [14]: 0.12 mg/L; Antibacterial activity (MIC) (S. mariescens FDOR 8733): 2 mg/L; Antibacterial activity (MIC) [15]: 0.06 mg/L; Antibacterial activity (MIC) [16]: 0.06 mg/L; Antibacterial activity (MIC) (E. faecalis ATCC 29212): 0.06 mg/L; Antibacterial activity (MIC) (E. coli J3272 TetD): 0.06 mg/L; Antibacterial activity (MIC) (S. aureus ROSE (MP)): 1 mg/L; Antibacterial activity (MIC) (E. coli UBMS 89-1 (tetM)): 0.12 mg/L
CNC(C)C(=O)Nc1cc(N(C)C)c2c(c1O)C(=O)C1=C(O)[C@]3(O)C(=O)C(C(N)=O)=C(O)[C@@H](N(C)C)C3CC1C2.Cl.Cl (stereo partly drawn) [YY, [4S-(4alpha,12aalpha))-4,7-Bis(dimethylamino)-1,4,4a,5,5a,6,11,12a-octahydro-3,10,12,12a-tetrahydroxy-9-[[2-(methylamino)-1-oxopropyl]amino]-1,11-dioxo-2-naphthacenecarboxamide dihydrochloride] | 0.5 mg/L | 0.5 mg/L | 0.5 to 1 mg/kg | 0.5 mg/L | 0.5 mg/L | 16 mg/L | 0.25 mg/L | 0.25 mg/L | 0.5 mg/L | 0.5 mg/L | 4 mg/L | 0.25 mg/L | 0.5 mg/L | 0.5 mg/L | 0.5 mg/L | 0.5 mg/L | 0.5 mg/L | 4 mg/L | 4 mg/L | 8 mg/L | Antibacterial activity (MIC) [6]: 0.5 mg/L; Antibacterial activity (MIC) (S. aureus NEMC 8769/89-4; unit assumed): 0.12 mg/L; Antibacterial activity (MIC) (E. coli BAJ9003; unit assumed): 0.06 mg/L; Antibacterial activity (MIC) (E. coli PRP1 TetA): 2 mg/L; Antibacterial activity (MIC) (E. coli J3272 TetC): 1 mg/L; ED50 (S. aureus SMITH (sens) [13]): >16 mg/kg; Antibacterial activity (MIC) [14]: 0.5 mg/L; Antibacterial activity (MIC) (S. mariescens FDOR 8733): 8 mg/L; Antibacterial activity (MIC) [15]: 0.12 mg/L; Antibacterial activity (MIC) [16]: 0.25 mg/L; Antibacterial activity (MIC) (E. faecalis ATCC 29212): 0.12 mg/L; Antibacterial activity (MIC) (E. coli J3272 TetD): 0.25 mg/L; Antibacterial activity (MIC) (S. aureus ROSE (MP)): 8 mg/L; Antibacterial activity (MIC) (E. coli UBMS 89-1 (tetM)): 0.5 mg/L
CN(C)c1cc(NC(=O)CN2CCCC2)c(O)c2c1CC1CC3[C@H](N(C)C)C(O)=C(C(N)=O)C(=O)[C@@]3(O)C(O)=C1C2=O (stereo partly drawn) [SS, [7S-(7alpha,10aalpha)]-N-[9-(Aminocarbonyl)-4,7-bis(dimethylamino)-5,5a,6,6a,7,10,10a,12-octahydro-1,8,10a,11-tetrahydroxy-10,12-dioxo-2-naphthacenyl]-1-pyrrolidineacetamide dihydrochloride] | 0.12 mg/L | 0.12 mg/L | 1 to 2 mg/kg | 0.12 mg/L | 0.25 mg/L | 16 mg/L | 0.12 mg/L | 0.12 mg/L | 0.25 mg/L | 0.25 mg/L | 0.5 mg/L | 0.12 mg/L | 0.25 mg/L | 0.25 mg/L | 0.25 mg/L | 0.25 mg/L | 0.25 mg/L | 0.5 mg/L | 0.5 mg/L | 1 mg/L | Antibacterial activity (MIC) (S. aureus NEMC 8769/89-4; unit assumed): 0.03 mg/L; Antibacterial activity (MIC) (E. coli BAJ9003): ≦0.015; Antibacterial activity (MIC) (E. coli PRP1 TetA): 0.5 mg/L; Antibacterial activity (MIC) (E. coli J3272 TetC): 0.25 mg/L; ED50 (S. aureus SMITH (sens) [13]): 8 to 16 mg/kg; Antibacterial activity (MIC) [14]: 0.25 mg/L; Antibacterial activity (MIC) (S. mariescens FDOR 8733): 2 mg/L; Antibacterial activity (MIC) [15]: 0.12 mg/L; Antibacterial activity (MIC) [16]: 0.12 mg/L; Antibacterial activity (MIC) (E. faecalis ATCC 29212): 0.12 mg/L; Antibacterial activity (MIC) (E. coli J3272 TetD): 0.12 mg/L; Antibacterial activity (MIC) (S. aureus ROSE (MP)): 1 mg/L; Antibacterial activity (MIC) (E. coli UBMS 89-1 (tetM)): 0.12 mg/L
